System: Ba/F3 ETV6-NTRK2-G639R cells
Experiment: Proliferation of Ba/F3 ETV6-NTRK2-G639R cells (CellTiter-Glo)
Format: cell-based
Settings: Mus musculus, BaF3; Table 6; 72 hours
Description: Ba/F3 ETV6-NTRK2-G639R is a stable transgenic cell line constructed by KYinno Biotechnology Co., Ltd. on mouse primary B cell Ba/F3 wherein NTRK2 is highly expressed with a mutation of G at position 639 to R, and fused with ETV6 to form ETV6-NTRK2. • [Test method]: Promega's CellTiter-Glo® Luminescent Cell Viability Assay kit was used to evaluate the inhibitory activity of the compounds on the proliferation of Ba/F3 ETV6-NTRK2-G639R cells. • [Instrument]: Spectramax M3 multifunctional microplate reader from Molecular Devices. • [Test materials]: Ba/F3 ETV6-NTRK2-G639R cell line (constructed by KYinno Biotechnology Co., Ltd. (Beijing)), 96-well transparent flat-bottomed black-walled cell culture plate (Corning, catalog #3603), RPMI-1640 media (GE, cat #SH30027.01), fetal bovine serum FBS (Thermo Fisher, cat #10099-141), CellTiter-Glo® Luminescent Cell Viability Assay kit (Promega, cat #G7572), PBS (Solarbio, cat #P1020), DMSO (Sigma, cat #D2650). • [Experimental procedure]: When resuscitating Ba/F3 ETV6-NTRK2-G639R cells, the freezing tube was quickly shaken in a 37° C. water bath to melt within 1 minute. The thawed cell suspension was mixed uniformly with RPMI1640 medium containing 10% FBS, centrifuged at 1000 rpm for 5 minutes, and the supernatant discarded. 5 mL of complete medium (RPMI1640 medium with 10% FBS) was taken to resuspend the cell pellets, charged into a cell culture flask with a bottom area of 25 cm^2, and incubated in a cell incubator at 37° C., 95% humidity and 5% CO2. Cells were allowed to passage when the number of cells reached about 10^6 cells/mL. For cell passage, the old cell suspension was directly pipetted evenly, 1/5 of the cell suspension was kept, 4 mL of new complete medium was added, after pipetting evenly, the cell flask was placed in the cell incubator for further culturing. Cell plating was performed when the number of cells reached about 10^6 cells/mL again. For cell plating, 1/5 of the cell suspension was kept for further culturing as in the cell passage method, and the remaining 4/5 of the cell suspension was placed in a 15 mL centrifuge tube, detected for cell viability by Trypan blue exclusion method to ensure that cell viability was above 90%. A cell suspension with a density of 5.56×10^4 viable cells/mL was prepared with complete medium, and 90 μL of such cell suspension was added to a 96-well cell culture plate to obtain the cell density of 5000 viable cells/mL in the cell culture plate. A control group containing no cells, no compound and only complete medium (i.e. culture medium control) and a control group containing no compound but containing cells (i.e. cell control) were set. The cell plate was placed in a cell incubator overnight. The 10 mM compound stock solution in DMSO was first serially diluted with DMSO at a dilution factor of 3.16 times, to obtain 9 concentrations, and the 10th concentration was set as DMSO control without compound. Then, PBS was used to dilute the DMSO solutions of compounds of different concentrations, at a dilution factor of 100 times, so that the DMSO concentration in the compound solution of each concentration was 1%. Finally, 10 μL of each of the above solutions was added to the corresponding cell culture plate, so that the initial compound concentration was 10 μM, with the remaining concentrations being successively diluted at a dilution factor of 3.16 times, and the DMSO content in the cell culture plate was 0.1%. The cell plate was placed in a cell incubator and cultured for 72 hours. For endpoint detection, the CellTiter-Glo reagent was melted, and the cell plate was moved to room temperature to equilibrate for 30 minutes, added with 100 μL of CellTiter-Glo for each well, and shaken on an orbital shaker for 5 minutes to fully lyse the cells. The plate was kept at room temperature for 20 minutes to stabilize the luminescence signal, and the luminescence value of each well was scanned with a multi-functional microplate reader at full wavelength. • [Test samples] […]

| IC50 [µM] | Structure (SMILES) |
| --- | --- |
| > 10 | O=C(Nc1cnn2ccc(N3CCC[C@@H]3c3cc(F)ccc3F)nc12)N1CC[C@H](O)C1 [LOXO-101, Larotrectinib, reference compound] |
| 1.88 | Cn1ncc2cc(Oc3ccc(NC(=O)c4ccc(C5CC5)n(-c5ccc(F)cc5)c4=O)cc3F)c(-c3cn[nH]c3)cc21 [Example 2, N-(3-fluoro-4-(1-methyl-6-(1H-pyrazol-4-yl)-1H-indazol-5-yloxy)phenyl)-1-(4-fluorophenyl)-6-cyclopropyl-2-oxo-1,2-dihydmpyridine-3-carboxamide] |
| 2.69 | CCc1ccc(C(=O)Nc2ccc(Oc3cc4cnn(C)c4cc3-c3cn[nH]c3)c(F)c2)c(=O)n1-c1ccc(F)cc1 [Example 5, N-(3-fluoro-4-(1-methyl-6-(1H-pyrazol-4-yl)-1H-indazol-5-yloxy)phenyl)-1-(4-fluorophenyl)-6-ethyl-2-oxo-1,2-dihydropyridine-3-carboxamide] |

Continued, compound first:

| Structure (SMILES) | IC50 [µM] |
| --- | --- |
| CC(C)c1ccc(C(=O)Nc2ccc(Oc3cc4cnn(C)c4cc3-c3cn[nH]c3)c(F)c2)c(=O)n1-c1ccc(F)cc1 [Example 6, N-(3-fluoro-4-(1-methyl-6-(1H-pyrazol-4-yl)-1H-indazol-5-yloxy)phenyl)-1-(4-fluorophenyl)-6-isopropyl-2-oxo-1,2-dihydropyridine-3-carboxamide] | 2.79 |
| Cn1ncc2cc(Oc3ccc(NC(=O)c4ccc(C(F)(F)F)n(-c5ccc(F)cc5)c4=O)cc3F)c(-c3cn[nH]c3)cc21 [Example 1, N-(3-fluoro-4-(1-methyl-6-(1H-pyrazol-4-yl)-1H-indazol-5-yloxy)phenyl)-1-(4-fluorophenyl)-6-trifluoromethyl-2-oxo-1,2-dihydmpyridine-3-carboxamide monomethanesulfonate] | 3.12 |
| Cc1ccc(C(=O)Nc2ccc(Oc3cc4cnn(C)c4cc3-c3cn[nH]c3)c(F)c2)c(=O)n1-c1ccc(F)cc1 [Merestinib, reference compound] | 3.04 |
| Cc1ccc(C(=O)Nc2ccc(Oc3cc4cnn(C(C)C)c4cc3-c3cn[nH]c3)c(F)c2)c(=O)n1-c1ccc(F)cc1 [Example 4, N-(3-fluoro-4-(1-isopropyl-6-(1H-pyrazol-4-yl)-1H-indazol-5-yloxy)phenyl)-1-(4-fluorophenyl)-6-methyl-2-oxo-1,2-dihydmpyridine-3-carboxamide] | > 10 |
| CCn1ncc2cc(Oc3ccc(NC(=O)c4ccc(C)n(-c5ccc(F)cc5)c4=O)cc3F)c(-c3cn[nH]c3)cc21 [Example 3, N-(3-fluoro-4-(1-ethyl-6-(1H-pyrazol-4-yl)-1H-indazol-5-yloxy)phenyl)-1-(4-fluorophenyl)-6-methyl-2-oxo-1,2-dihydmpyridine-3-carboxamide] | 9.87 |
